Laboratory results as given in patent US11345681B1, “Inhibitors of fibroblast growth factor receptor kinases” (Kinnate Biopharma Inc., priority 2020, dated 2022).

These compounds were tested against Wild type FGFR2 (Homo sapiens (Human), UniProt P21802) (assay: FGFR2 kinase assay (fluorescence-based microfluidic mobility shift assay)). Conditions: wild type FGFR2 0.06 nM, 100 μM ATP, 80 minutes at room temperature; class symbols.
Format: biochemical

Sequence of Wild type FGFR2 (P21802 22-821): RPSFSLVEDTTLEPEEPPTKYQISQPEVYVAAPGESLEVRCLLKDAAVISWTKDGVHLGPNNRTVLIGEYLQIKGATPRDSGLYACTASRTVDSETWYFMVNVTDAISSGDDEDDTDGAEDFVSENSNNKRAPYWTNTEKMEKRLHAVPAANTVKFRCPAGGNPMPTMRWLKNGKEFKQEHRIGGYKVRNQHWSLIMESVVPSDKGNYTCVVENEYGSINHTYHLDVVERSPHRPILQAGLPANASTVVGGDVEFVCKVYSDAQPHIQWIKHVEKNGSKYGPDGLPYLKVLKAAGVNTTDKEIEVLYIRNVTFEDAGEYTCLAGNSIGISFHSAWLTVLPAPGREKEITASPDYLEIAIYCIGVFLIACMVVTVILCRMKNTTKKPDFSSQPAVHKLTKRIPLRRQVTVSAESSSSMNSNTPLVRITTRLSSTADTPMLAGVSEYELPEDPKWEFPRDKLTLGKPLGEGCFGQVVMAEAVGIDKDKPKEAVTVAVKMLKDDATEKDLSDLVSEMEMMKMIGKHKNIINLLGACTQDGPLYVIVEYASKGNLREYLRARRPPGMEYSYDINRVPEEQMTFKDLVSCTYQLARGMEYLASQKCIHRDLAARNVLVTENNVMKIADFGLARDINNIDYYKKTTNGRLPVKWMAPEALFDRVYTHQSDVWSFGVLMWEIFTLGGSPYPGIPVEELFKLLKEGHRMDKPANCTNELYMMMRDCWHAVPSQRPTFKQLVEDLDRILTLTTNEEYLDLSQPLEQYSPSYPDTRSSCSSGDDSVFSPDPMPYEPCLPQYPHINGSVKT

Row | Structure (SMILES) | IC50 [nM]
1 | C=CC(=O)N1C[C@@H](n2nc(C#Cc3c(F)cc4c(ncn4C4CC4)c3F)c(C(N)=O)c2NC)C[C@@H]1COC(F)F [Example 156, 1-((3S,5R)-1-Acryloyl-5-((difluoromethoxy)methyl)pyrrolidin-3-yl)-3-((1-cyclopropyl-4,6-difluoro-1H-benzo[d]imidazol-5-yl)ethynyl)-5-(methylamino)-1H-pyrazole-4-carboxamide] | ≤ 100
2 | C=CC(=O)N1C[C@@H](n2nc(C#Cc3cc4ncn(C5CC5)c4c(F)c3F)c(C(N)=O)c2NC)C[C@@H]1C [Example 158, 3-[2-(1-cyclopropyl-6,7-difluoro-1,3-benzodiazol-5-yl)ethynyl]-1-[(3S,5S)-5-methyl-1-(prop-2-enoyl)pyrrolidin-3-yl]-5-(methylamino)pyrazole-4-carboxamide] | ≤ 100
3 | C=CC(=O)N1C[C@@H](n2nc(C#Cc3c(F)cc4c(ncn4C4CC4)c3F)c(C(N)=O)c2NC)C[C@@H]1C(F)F [Example 163, 3-[2-(1-Cyclopropyl-4,6-difluoro-1,3-benzodiazol-5-yl)ethynyl]-1-[(3S,5R)-5-(difluoromethyl)-1-(prop-2-enoyl)pyrrolidin-3-yl]-5-(methylamino)pyrazole-4-carboxamide] | ≤ 100
4 | C=CC(=O)N1C[C@@H](n2nc(C#Cc3cc4ncn(C5CC5)c4cc3F)c(C(N)=O)c2NC)C[C@H]1C [Example 164, 1-((3S,5R)-1-Acryloyl-5-methylpyrrolidin-3-yl)-3-((1-cyclopropyl-6-fluoro-1H-benzo[d]imidazol-5-yl)ethynyl)-5-(methylamino)-1H-pyrazole-4-carboxamide] | ≤ 100
5 | C=CC(=O)N1C[C@@H](n2nc(C#Cc3c(F)cc4c(ncn4C4CC4)c3F)c(C(N)=O)c2NC)C[C@H]1C [Example 165, 3-[2-(1-Cyclopropyl-4,6-difluoro-1,3-benzodiazol-5-yl)ethynyl]-1-[(3S,5R)-5-methyl-1-(prop-2-enoyl)pyrrolidin-3-yl]-5-(methylamino)pyrazole-4-carboxamide] | ≤ 100
6 | C=CC(=O)N1C[C@@H](n2nc(C#Cc3cc4ncn(C5CC5)c4cc3F)c(C(N)=O)c2NC)C[C@@H]1C [Example 169, 1-((3S,5S)-1-Acryloyl-5-methylpynolidin-3-yl)-3-((1-cyclopropyl-6-fluoro-1H-benzo[d]imidazol-5-yl)ethynyl)-5-(methylamino)-1H-pyrazole-4-carboxamide] | ≤ 100
7 | C=CC(=O)N1C[C@@H](n2nc(C#Cc3cc4ncn(C5CC5)c4cc3F)c(C(N)=O)c2NC)C[C@@H]1C(F)F [Example 170, 3-[2-(1-Cyclopropyl-6-fluoro-1,3-benzodiazol-5-yl)ethynyl]-1-[(3S,5R)-5-(difluoromethyl)-1-(prop-2-enoyl)pyrrolidin-3-yl]-5-(methylamino)pyrazole-4-carboxamide] | ≤ 100
8 | C=CC(=O)N1CC[C@H](n2nc(C#Cc3cc4ncn(C5CC5)c4c(F)c3F)c(C(N)=O)c2NC)C1 [Example 171] | ≤ 100
9 | C=C(F)C(=O)N1CC(n2nc(C#Cc3cc4ncn(C5CC5)c4cc3F)c(C(N)=O)c2NC)C1 [Example 172, 3-((1-Cyclopropyl-6-fluoro-1H-benzo[d]imidazol-5-yl)ethynyl)-1-(1-(2-fluoroacryloyl)azetidin-3-yl)-5-(methylamino)-1H-pyrazole-4-carboxamide] | ≤ 100
10 | C=CC(=O)N1CC(n2nc(C#Cc3cc4ncn(C5CC5)c4cc3F)c(C(N)=O)c2NC)C1 [Example 175, 3-[2-(1-cyclopropyl-6-fluoro-1,3-benzodiazol-5-yl)ethynyl]-5-(methylamino)-1-[1-(prop-2-enoyl)azetidin-3-yl]pyrazole-4-carboxamide] | ≤ 100
11 | C=CC(=O)N1C[C@@H](n2nc(C#Cc3c(F)cc4[nH]cnc4c3F)c(C(N)=O)c2NC)C[C@@H]1COC [Example 177, 1-((3S,5R)-1-acryloyl-5-(methoxymethyl)pyrrolidin-3-yl)-3-((4,6-difluoro-1H-benzo[d]imidazol-5-yl)ethynyl)-5-(methylamino)-1H-pyrazole-4-carboxamide] | ≤ 100
12 | C=CC(=O)N1C[C@@H](n2nc(C#Cc3c(F)cc4c(ncn4C4CC4)c3F)c(C(N)=O)c2NC)C[C@@H]1CF [Example 179, 1-((3S,5R)-1-Acryloyl-5-(fluoromethyl)pyrrolidin-3-yl)-3-((1-cyclopropyl-4,6-difluoro-1H-benzo[d]imidazol-5-yl)ethynyl)-5-(methylamino)-1H-pyrazole-4-carboxamide] | ≤ 100
13 | C=CC(=O)N1C[C@@H](n2nc(C#Cc3c(F)cc4c(ncn4C4CC4)c3F)c(C(N)=O)c2NC)C[C@H]1CF [Example 181, 3-[2-(1-Cyclopropyl-4,6-difluoro-1,3-benzodiazol-5-yl)ethynyl]-1-[(3S,5S)-5-(fluoromethyl)-1-(prop-2-enoyl)pyrrolidin-3-yl]-5-(methylamino)pyrazole-4-carboxamide] | ≤ 100

More lines, now with the values ahead:

Row | IC50 [nM] | Structure (SMILES)
14 | ≤ 100 | C=CC(=O)N1C[C@@H](n2nc(C#Cc3c(F)c(F)c4c(ncn4C4CC4)c3F)c(C(N)=O)c2NC)C[C@@H]1COC [Example 153, 3-[2-(1-cyclopropyl-4,6,7-trifluoro-1,3-benzodiazol-5-yl)ethynyl]-1-[(3S,5R)-5-(methoxymethyl)-1-(prop-2-enoyl)pyrrolidin-3-yl]-5-(methylamino)pyrazole-4-carboxamide]
15 | ≤ 100 | C=CC(=O)N1C[C@@H](n2nc(C#Cc3cc4ncn(CC)c4c(F)c3F)c(C(N)=O)c2NC)C[C@@H]1COC(F)F [Example 154, 1-[(3S,5R)-5-[(Difluoromethoxy)methyl]-1-(prop-2-enoyl)pyrrolidin-3-yl]-3-[2-(1-ethyl-6,7-difluoro-1,3-benzodiazol-5-yl)ethynyl]-5-(methylamino)pyrazole-4-carboxamide]
16 | ≤ 100 | C=CC(=O)N1C[C@@H](n2nc(C#Cc3ccc4c(c3)ncn4C3CC3)c(C(N)=O)c2NC)C[C@@H]1COC(F)F [Example 155, 3-[2-(1-Cyclopropyl-1,3-benzodiazol-5-yl)ethynyl]-1-[(3S,5R)-5-[(difluoromethoxy)methyl]-1-(prop-2-enoyl)pyrrolidin-3-yl]-5-(methylamino)pyrazole-4-carboxamide]
17 | ≤ 100 | C=CC(=O)N1C[C@@H](n2nc(C#Cc3c(F)c(F)c4c(ncn4CC)c3F)c(C(N)=O)c2NC)C[C@@H]1COC [Example 157, 3-[2-(1-Ethyl-4,6,7-trifluoro-1,3-benzodiazol-5-yl)ethynyl]-1-[(3S,5R)-5-(methoxymethyl)-1-(prop-2-enoyl)pyrrolidin-3-yl]-5-(methylamino)pyrazole-4-carboxamide]
18 | ≤ 100 | C=CC(=O)N1C[C@@H](n2nc(C#Cc3cc4ncn(C5CC5)c4cc3F)c(C(N)=O)c2NC)C[C@@H]1COC(F)F [Example 161, 1-((3S,5R)-1-acryloyl-5-((difluoromethoxy)methyl)pyrrolidin-3-yl)-3-((1-cyclopropyl-6-fluoro-1H-benzo[d]imidazol-5-yl)ethynyl)-5-(methylamino)-1H-pyrazole-4-carboxamide]
19 | ≤ 100 | C=CC(=O)N1CC[C@H](n2nc(C#Cc3cc4ncn(C5CC5)c4cc3F)c(C(N)=O)c2N)C1 [Example 168, 5-Amino-3-[2-(1-cyclopropyl-6-fluoro-1,3-benzodiazol-5-yl)ethynyl]-1-[(3S)-1-(prop-2-enoyl)pyrrolidin-3-yl]pyrazole-4-carboxamide]
20 | ≤ 100 | C=C(F)C(=O)N1CC(n2nc(C#Cc3c(F)cc4c(ncn4C4CC4)c3F)c(C(N)=O)c2NC)C1 [Example 173, 3-((1-Cyclopropyl-4,6-difluoro-1H-benzo[d]imidazol-5-yl)ethynyl)-1-(1-(2-fluoroacryloyl)azetidin-3-yl)-5-(methylamino)-1H-pyrazole-4-carboxamide]
21 | ≤ 100 | C=CC(=O)N1C[C@@H](n2nc(C#Cc3cc4ncn(C5CC5)c4cc3F)c(C(N)=O)c2NC)C[C@@H]1CF [Example 176, 1-((3S,5R)-1-acryloyl-5-(fluoromethyl)pyrrolidin-3-yl)-3-((1-cyclopropyl-6-fluoro-1H-benzo[d]imidazol-5-yl)ethynyl)-5-(methylamino)-1H-pyrazole-4-carboxamide]
22 | ≤ 100 | C=CC(=O)N1C[C@@H](n2nc(C#Cc3ccc4c(c3)ncn4C3CC3)c(C(N)=O)c2NC)C[C@@H]1CF [Example 178, 1-((3S,5R)-1-Acryloyl-5-(fluoromethyl)pyrrolidin-3-yl)-3-((1-cyclopropyl-1H-benzo[d]imidazol-5-yl)ethynyl)-5-(methylamino)-1H-pyrazole-4-carboxamide]
23 | ≤ 100 | C=CC(=O)N1C[C@@H](n2nc(C#Cc3cc4ncn(C5CC5)c4cc3F)c(C(N)=O)c2NC)C[C@H]1CF [Example 180, 3-[2-(1-Cyclopropyl-6-fluoro-1,3-benzodiazol-5-yl)ethynyl]-1-[(3S,5S)-5-(fluoromethyl)-1-(prop-2-enoyl)pyrrolidin-3-yl]-5-(methylamino)pyrazole-4-carboxamide]
24 | ≤ 100 | C#CC(=O)N1C[C@@H](n2nc(C#Cc3cc4ncn(C5CC5)c4cc3F)c(C(N)=O)c2NC)C[C@@H]1COC [Example 182, 3-((1-Cyclopropyl-6-fluoro-1H-benzo[d]imidazol-5-yl)ethynyl)-1-((3S,5R)-5-(methoxymethyl)-1-propioloylpyrrolidin-3-yl)-5-(methylamino)-1H-pyrazole-4-carboxamide]
25 | ≤ 100 | CC#CC(=O)N1C[C@@H](n2nc(C#Cc3cc4ncn(C5CC5)c4cc3F)c(C(N)=O)c2NC)C[C@@H]1COC [Example 183, 1-((3S,5R)-1-(But-2-ynoyl)-5-(methoxymethyl)pyrrolidin-3-yl)-3-((1-cyclopropyl-6-fluoro-1H-benzo[d]imidazol-5-yl)ethynyl)-5-(methylamino)-1H-pyrazole-4-carboxamide]
26 | ≤ 100 | C#CC(=O)N1C[C@@H](n2nc(C#Cc3c(F)cc4c(ncn4C4CC4)c3F)c(C(N)=O)c2NC)C[C@@H]1COC [Example 184, 3-[2-(1-cyclopropyl-4,6-difluoro-1,3-benzodiazol-5-yl)ethynyl]-1-[(3S,5R)-5-(methoxymethyl)-1-(prop-2-ynoyl)pyrrolidin-3-yl]-5-(methylamino)pyrazole-4-carboxamide]
